Results on two compounds are retold here after BindingDB's records for patent US11542283 (Jiangsu Chia Tai Fenghai Pharmaceutical, 2023).

The target of this test is T1, Proteasome subunit beta type-5 (Homo sapiens, UniProt P28074).
T1 sequence (P28074 whole entry): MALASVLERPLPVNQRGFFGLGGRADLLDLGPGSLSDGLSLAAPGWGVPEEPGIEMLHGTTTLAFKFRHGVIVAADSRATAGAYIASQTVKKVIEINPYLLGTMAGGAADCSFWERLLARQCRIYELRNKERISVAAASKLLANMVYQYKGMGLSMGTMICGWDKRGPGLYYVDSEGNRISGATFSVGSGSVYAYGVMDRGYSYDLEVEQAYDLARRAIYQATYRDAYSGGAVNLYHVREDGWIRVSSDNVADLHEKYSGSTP
Put plainly: Proteasome Inhibitory Activity. From the text:
The proteasome used in the present invention is human erythrocyte 20S proteasome, and the enzyme, fluorescent substrate and test buffer are all purchased from Enzo.

With `CSC[C@H](NC(=O)c1cc(Cl)ccc1Cl)C(=O)N[C@@H](CC(C)C)B(O)O` [US11542283, Compound IV-9], the concentration for half-maximal inhibition (IC50) – broadly, the concentration that gives 50% inhibition – came to 4.86 nM.

As to `CC(C)C[C@H](NC(=O)CNC(=O)c1cc(Cl)ccc1Cl)B1OC(=O)CC(CC(=O)O)(C(=O)O)O1` (some centres not stated) [US11542283, Compound MLN-9708], it took 7.47 nM to reach half-maximal inhibition (IC50).
